The test system of data set [1] is Plasmodium falciparum. The data set is described as follows: Antimalarial activity against drug sensitive Plasmodium falciparum 3D7. Format: functional, organism-based.
The subject of the next data set is KB. Put plainly: Antitumor activity against human KB cells assessed as reduction in cell viability. Type of data set: functional, cell-based.
Data set [2] deals with Plasmodium falciparum. The data set is described as follows: Antimalarial activity against drug resistant Plasmodium falciparum KI. Type of data set: functional, organism-based.
The nature of data set [3]: Cmax in mouse at 100 mg/kg, ip. Format: ADME, organism-based. Details: dose 100 mg/kg, route ip. Particulars: in vivo.
In a further data set the test system is HeLa. Put plainly: Antitumor activity against human HeLa cells assessed as reduction in cell viability. Format: functional, cell-based.
A short description of data set [4]: Half life in mouse at 10 mg/kg, ip. Type of data set: ADME, organism-based. Particulars: in vivo.
Data set [5] in a line: Binding affinity to Plasmodium falciparum LDH assessed as inhibitory constant.
The test system of data set [6] is Plasmodium falciparum. Put plainly: Antimalarial activity against Plasmodium falciparum assessed as parasitic reduction at 10 mg/kg of chloroquine relative to control. Format: functional. The arrangement: scale not given: the % may be the effect or the level left.
In data set [7] the test system is Plasmodium falciparum. Put plainly: Antimalarial activity against Plasmodium falciparum assessed as parasitic reduction at 100 mg/kg relative to control. Format: functional. Details: scale not given: the % may be the effect or the level left.
Data set [8] in a line: Half life in mouse at 10 mg/kg, po. Format: ADME, organism-based. The settings on record: in vivo.
Data set [9] is described as follows: Inhibition of human recombinant LDH.
Another data set deals with Lactate dehydrogenase (Plasmodium falciparum, UniProt Q0PJ46). The data set is described as follows: Inhibition of recombinant Plasmodium falciparum LDH.
Lactate dehydrogenase, sequence (Q0PJ46 whole entry): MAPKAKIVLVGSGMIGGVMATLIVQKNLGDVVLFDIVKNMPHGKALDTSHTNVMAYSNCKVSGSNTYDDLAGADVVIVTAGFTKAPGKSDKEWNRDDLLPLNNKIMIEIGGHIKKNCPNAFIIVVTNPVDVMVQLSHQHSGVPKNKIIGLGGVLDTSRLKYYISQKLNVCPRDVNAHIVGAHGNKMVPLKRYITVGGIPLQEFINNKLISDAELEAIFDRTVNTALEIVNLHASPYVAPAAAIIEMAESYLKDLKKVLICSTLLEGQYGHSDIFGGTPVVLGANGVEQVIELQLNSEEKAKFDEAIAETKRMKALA
Data set [10] in a line: Cmax in mouse at 100 mg/kg, po. Type of data set: ADME, organism-based. Details: dose 100 mg/kg, route po. The settings on record: in vivo.
Data set [11] can be described thus: physchem. The settings on record: PBS, pH 7.4.
Description: Solubility of the compound in PBS at pH 7.4
A further data set deals with MCF7. The data set is described as follows: cells. Format: functional, cell-based. Particulars: Homo sapiens, MCF7, 24 h.
Another data set is described as follows: in vitro. Particulars: human, liver microsomes, po, 10 mg/kg.
The nature of data set [12]: physchem. The settings on record: octanol/water.
Description: Lipophilicity, log P of the compound
In the next data set the test system is CHO. The data set is described as follows: Antiproliferative activity against CHO cells assessed as reduction in cell proliferation by MTT assay. Format: functional, cell-based. The settings on record: Cricetulus griseus. In general terms: Formazan colour is commonly taken as a measure of viable cells.
Data set [13] concerns the target Cyclin-dependent kinase 2 (Homo sapiens, UniProt P24941). The data set is described as follows: Inhibition of CDK-2 (unknown origin).
The test system of data set [14] is Streptococcus pneumoniae. Put plainly: Antibacterial activity against Streptococcus pneumoniae assessed as reduction in bacterial growth by broth microdilution method. Type of data set: functional. Background: In broth dilution the organism is exposed to a series of concentrations in liquid medium.
Data set [15] has as its system Staphylococcus aureus. The data set is described as follows: Antibacterial activity against Staphylococcus aureus assessed as reduction in bacterial growth incubated for 1 hrs in presence of azithromycin by colony-counting method. Type of data set: functional.
Data set [16] concerns Streptococcus pneumoniae. The data set is described as follows: Antibiofilm activity against Streptococcus pneumoniae reduction in biofilm formation in the presence of tobramycin at 13 uM relative to control. Format: functional. Details: scale not given: the % may be the effect or the level left.
Data set [17] has as its system Staphylococcus aureus. The data set is described as follows: Antibiofilm activity against Staphylococcus aureus reduction in biofilm formation in the presence of azithromycin at 63 uM relative to control. Format: functional. Details: scale not given: the % may be the effect or the level left.
For data set [18], the system named is Streptococcus pneumoniae. The data set is described as follows: Antibiofilm activity against Streptococcus pneumoniae reduction in biofilm formation at 63 uM relative to control. Type of data set: functional. The arrangement: scale not given: the % may be the effect or the level left.
The test system of data set [19] is Staphylococcus aureus. The data set is described as follows: Antibacterial activity against Staphylococcus aureus assessed as reduction in bacterial growth by broth microdilution method. Type of data set: functional.
Data set [20] has as its system Staphylococcus aureus. The data set is described as follows: Antibiofilm activity against Staphylococcus aureus reduction in biofilm formation at 63 uM relative to control. Format: functional. Details: scale not given: the % may be the effect or the level left.
The test system of data set [21] is Streptococcus pneumoniae. The data set is described as follows: Antibacterial activity against Streptococcus pneumoniae assessed as reduction in bacterial growth incubated for 1 hrs in presence of tobramycin by colony-counting method. Format: functional.
In a further data set the test system is Mus musculus. Put plainly: In vivo antibacterial activity against Helicobacter pylori SS1 infected mouse model assessed as reduction in infection at 200 mg/kg, po administered for 8 days relative to control. Type of data set: functional. The arrangement: scale not given: the % may be the effect or the level left. The settings on record: time 8 day.
The test system of data set [22] is Helicobacter pylori. The data set is described as follows: Antibacterial activity against Helicobacter pylori NCTC11637 assessed as reduction in bacterial growth incubated for 1 hrs in presence of metronidazole-resistant by colony-counting method. Format: functional.
For data set [23], the system named is Helicobacter pylori. Put plainly: Antibacterial activity against Helicobacter pylori NCTC11637 assessed as reduction in bacterial growth incubated for 1 hrs in presence of metronidazole by colony-counting method. Format: functional.
In data set [24] the test system is Helicobacter pylori. Put plainly: Antibacterial activity against Helicobacter pylori SS1 assessed as reduction in bacterial growth in the presence of metronidazole-sensitive by broth microdilution method. Format: functional.
The test system of data set [25] is Helicobacter pylori. The data set is described as follows: Antibacterial activity against Helicobacter pylori SS1 assessed as reduction in bacterial growth incubated for 1 hrs in presence of metronidazole by colony-counting method. Type of data set: functional.
For another data set, the system named is PANC-1. The data set is described as follows: Antitumor activity against human PANC-1 cells in xenografted mouse model assessed as reduction in tumor growth at 30 mg/kg, ip administered daily for 21 days relative to control. Type of data set: functional. The arrangement: scale not given: the % may be the effect or the level left. The settings on record: time 21 day.

The subject of the next data set is LNCaP. The data set is described as follows: Antitumor activity against human LNCaP cells in xenografted mouse model assessed as reduction in tumor growth at 30 mg/kg, ip administered daily for 21 days relative to control. Format: functional. Details: scale not given: the % may be the effect or the level left. The settings on record: time 21 day. A general note: In xenograft studies the graft and the host belong to different species.

The next data set deals with HCC1954. The data set is described as follows: Antitumor activity against human HCC1954 cells in xenografted mouse model assessed as reduction in tumor growth at 30 mg/kg, ip administered daily for 21 days relative to control. Type of data set: functional. The arrangement: scale not given: the % may be the effect or the level left. Particulars: time 21 day.
In a further data set the test system is SK-OV-3. Put plainly: Antitumor activity against human SK-OV-3 cells in xenografted mouse model assessed as reduction in tumor growth at 30 mg/kg, ip administered daily for 21 days relative to control. The settings on record: time 21 day. Details: scale not given: the % may be the effect or the level left. Type of data set: functional.
For another data set, the system named is MDA-MB-453. Put plainly: Antitumor activity against human MDA-MB-453 cells in xenografted mouse model assessed as reduction in tumor growth at 30 mg/kg, ip administered daily for 21 days relative to control. Type of data set: functional. The arrangement: scale not given: the % may be the effect or the level left. Particulars: time 21 day.
In a further data set the test system is BT-474. The data set is described as follows: Antitumor activity against human BT-474 cells in xenografted mouse model assessed as reduction in tumor growth at 30 mg/kg, ip administered daily for 21 days relative to control. Format: functional. Particulars: time 21 day. The arrangement: scale not given: the % may be the effect or the level left.

pEC50, pIC50, pKi: −log10 of the molar value. ≈ marks a conversion by molar mass, not a printed value.

Description for MCF7: Antiproliferative activity against human MCF7 assessed as reduction in cell viability incubated for 24 hrs by MTT assay
Description for in vitro: Half life in human liver microsomes at 10 mg/kg, po

As usually defined, the pEC50 is the EC50 on a negative log10 scale, so that one unit is a factor of ten. As a reminder, the EC90 is the point of the concentration-response curve where the effect stands at 90%. For orientation: Cmax means the maximum level reached in the sampled fluid or tissue. The term half-life denotes the time in which the quantity being followed falls by half. For orientation: pKi means the Ki on a negative log10 scale, so that one unit is a factor of ten. By pIC50 is commonly meant the IC50 on a negative log10 scale, so that one unit is a factor of ten. Regarding `O=C(O)c1nonc1O`, the pEC50 with Plasmodium falciparum [1] was 4.65; with KB, 3.19; in the data set with Plasmodium falciparum [2], 4.73; in the data set on HeLa, 2.89. The same compound registered a 90% effect concentration (EC90) in the data set on Plasmodium falciparum [1] of 75.9 µM. The values for the Cmax in data set [3] and in data set [10] were 196 µM and 138 µM, respectively. In addition, the half-life in [4] and in data set [8] was 1.3 h throughout. Further, the pKi in [5] was 6.68. Moreover, the Activity amounted to 100% with Plasmodium falciparum [6] and 41% with Plasmodium falciparum [7]. Moreover, the negative-log IC50 (pIC50) in data set [9] was 4.14; at Lactate dehydrogenase, 6.19.
Broadly, the solubility is the concentration that dissolves in the medium under given conditions. A word on the logP: it is a log measure of how a compound divides between an organic and an aqueous phase. With `Oc1nc2nonc2nc1Nc1ccc(OC(F)(F)F)cc1`, the solubility in “physchem [11]” is > 500 µM. Further, the pEC50 with MCF7 was 5.37. In “in vitro”, this compound gave a half-life of 5.7 h. This compound also returned a logP in the data set “physchem [12]” of 5.2.
For `Nc1nonc1-n1nnc(-c2nnc(-c3ccncc3)[nH]2)c1CN1CCCCC1`, the negative logarithm of the EC50 (pEC50) with CHO was 5.73. Besides, in [13], the pIC50 was < 3.60.
By MIC is commonly meant the lowest concentration found to suppress growth. In the case of `N=C(N/C(=N/O)c1nonc1N)c1ccccc1N`, the MIC in the data set on Streptococcus pneumoniae [14] stood at 250 µM (≈ 65.3 µg/mL); with Staphylococcus aureus [15], 200 µM; with Staphylococcus aureus [19] it was 250 µM (≈ 65.3 µg/mL); in the data set with Streptococcus pneumoniae [21], 50 µM. For the same compound, the Activity amounted to 50% with Streptococcus pneumoniae [16], 48% with Staphylococcus aureus [17], 73% in the data set on Streptococcus pneumoniae [18] and 77% in the data set with Staphylococcus aureus [20].
As for `COc1ccc(C[S+]([O-])c2ccc(N)c3nonc23)cc1` (centres undefined), the Activity with Mus musculus came to 60%. The MIC in the data set on Helicobacter pylori [22] was determined as 53 µM; with Helicobacter pylori [23], 187 µM; in the data set with Helicobacter pylori [24], 105 µM; in the data set on Helicobacter pylori [25], 2.9 µM.
In the case of `CCn1c(-c2nonc2N)nc2c(C#CC(C)(C)O)ncc(OC[C@H]3CCCNC3)c21` [GSK-690693], the Activity in the data set on PANC-1 stood at 5%; with LNCaP, 50%; with HCC1954, 65%; with SK-OV-3, 58%; in the data set with MDA-MB-453 it was 27%; in the data set on BT-474 it was 46%.

Values taken from ChEMBL document CHEMBL5236544, “Furazans in Medicinal Chemistry” (J Med Chem, 2021).
